According to ChEMBL document CHEMBL3885881, “DrugMatrix”:

Organism: Rattus norvegicus
Experiment: DrugMatrix - Regimen: Daily Repeat
Assay type: toxicity, organism-based, Sprague-Dawley
Design: regimen Daily Repeat, gender Male, age 6-8 weeks
Settings: in vivo, po, route oral GAVAGE, vehicle .5 % CMC; for ABSOLUTE BASOPHIL / ABSOLUTE EOSINOPHIL / ABSOLUTE LYMPHOCYTE / ABSOLUTE MONOCYTE / ABSOLUTE SEGMENTED NEUTROPHIL / BASOPHIL / EOSINOPHIL / ERYTHROCYTE COUNT / HEMATOCRIT / HEMOGLOBIN / LEUKOCYTE COUNT / LYMPHOCYTE / MEAN CORPUSCULAR HEMOGLOBIN / MEAN CORPUSCULAR HEMOGLOBIN CONCENTRATION / MEAN CORPUSCULAR VOLUME / MONOCYTE / NEUTROPHIL / NUCLEATED RED BLOOD CELLS / PLATELET COUNT: tissue Blood; for ALANINE AMINOTRANSFERASE / ALBUMIN / ALKALINE PHOSPHATASE / ASPARTATE AMINOTRANSFERASE / BLOOD UREA NITROGEN / CARBON DIOXIDE / CHLORIDE / CHOLESTEROL / CREATINE PHOSPHOKINASE / CREATININE / GLUCOSE / LACTATE DEHYDROGENASE / LIPASE / PHOSPHORUS / POTASSIUM / SODIUM / TOTAL BILIRUBIN / TOTAL PROTEIN / URIC ACID: tissue Plasma
[1] = 0 mg/kg, 72 h, dose level Control, time 3 day
[2] = 0 mg/kg, 120 h, dose level Control, time 5 day
[3] = 100 mg/kg, 72 h, dose level Low, time 3 day

O=C(O)CCc1nc(-c2ccccc2)c(-c2ccccc2)o1 [OXAPROZIN]
ABSOLUTE BASOPHIL [1]: 0 CELLS/uL
ABSOLUTE EOSINOPHIL [1]: 0 CELLS/uL
ABSOLUTE LYMPHOCYTE [1]: 12269.67 CELLS/uL
ABSOLUTE MONOCYTE [1]: 160.33 CELLS/uL
ABSOLUTE SEGMENTED NEUTROPHIL [1]: 970 CELLS/uL
BASOPHIL [1]: 0%
EOSINOPHIL [1]: 0%
ERYTHROCYTE COUNT [1]: 5.76 x10E6/uL
HEMATOCRIT [1]: 36.57%
HEMOGLOBIN [1]: 14.22 G/DL
LEUKOCYTE COUNT [1]: 13.4 x10E3/uL
LYMPHOCYTE [1]: 91.67%
MEAN CORPUSCULAR HEMOGLOBIN [1]: 24.67 pg
MEAN CORPUSCULAR HEMOGLOBIN CONCENTRATION [1]: 38.85 G/DL
MEAN CORPUSCULAR VOLUME [1]: 63.52 fL
MONOCYTE [1]: 1.17%
NEUTROPHIL [1]: 7.17%
NUCLEATED RED BLOOD CELLS [1]: 0.33 /100WBC
PLATELET COUNT [1]: 1250.83 x10E3/uL
ALANINE AMINOTRANSFERASE [1]: 49.17 u/L
ALBUMIN [1]: 4.33 G/DL
ALKALINE PHOSPHATASE [1]: 378.5 u/L
ASPARTATE AMINOTRANSFERASE [1]: 82.17 u/L
BLOOD UREA NITROGEN [1]: 15 mg/dL
CARBON DIOXIDE [1]: 34.33 mmol/L
CHLORIDE [1]: 99.17 MEQ/L
CHOLESTEROL [1]: 71.17 mg/dL
CREATINE PHOSPHOKINASE [1]: 258.67 u/L
CREATININE [1]: 0.18 mg/dL
GLUCOSE [1]: 142.67 mg/dL
LACTATE DEHYDROGENASE [1]: 154.33 u/L
LIPASE [1]: 9 u/L
PHOSPHORUS [1]: 11.67 mg/dL
POTASSIUM [1]: 7.13 MEQ/L
SODIUM [1]: 142.22 MEQ/L
TOTAL BILIRUBIN [1]: 0.18 mg/dL
TOTAL PROTEIN [1]: 5.77 G/DL
URIC ACID [1]: 1.55 mg/dL
ABSOLUTE BASOPHIL [2]: 0 CELLS/uL
ABSOLUTE EOSINOPHIL [2]: 23.33 CELLS/uL
ABSOLUTE LYMPHOCYTE [2]: 14943.67 CELLS/uL
ABSOLUTE MONOCYTE [2]: 32 CELLS/uL
ABSOLUTE SEGMENTED NEUTROPHIL [2]: 1084.33 CELLS/uL
BASOPHIL [2]: 0%
EOSINOPHIL [2]: 0.17%
ERYTHROCYTE COUNT [2]: 5.71 x10E6/uL
HEMATOCRIT [2]: 35.28%
HEMOGLOBIN [2]: 14.27 G/DL
LEUKOCYTE COUNT [2]: 16.08 x10E3/uL
LYMPHOCYTE [2]: 93%
MEAN CORPUSCULAR HEMOGLOBIN [2]: 25.02 pg
MEAN CORPUSCULAR HEMOGLOBIN CONCENTRATION [2]: 40.43 G/DL
MEAN CORPUSCULAR VOLUME [2]: 61.82 fL
MONOCYTE [2]: 0.17%
NEUTROPHIL [2]: 6.67%
NUCLEATED RED BLOOD CELLS [2]: 0.33 /100WBC
PLATELET COUNT [2]: 1274 x10E3/uL
ALANINE AMINOTRANSFERASE [2]: 54.17 u/L
ALBUMIN [2]: 4.22 G/DL
ALKALINE PHOSPHATASE [2]: 373.17 u/L
ASPARTATE AMINOTRANSFERASE [2]: 81.83 u/L
BLOOD UREA NITROGEN [2]: 16.67 mg/dL
CARBON DIOXIDE [2]: 30.33 mmol/L
CHLORIDE [2]: 99 MEQ/L
CHOLESTEROL [2]: 71 mg/dL
CREATINE PHOSPHOKINASE [2]: 273.5 u/L
CREATININE [2]: 0.22 mg/dL
GLUCOSE [2]: 141.83 mg/dL
LACTATE DEHYDROGENASE [2]: 153.67 u/L
LIPASE [2]: 10.33 u/L
PHOSPHORUS [2]: 11.38 mg/dL
POTASSIUM [2]: 7.08 MEQ/L
SODIUM [2]: 142.75 MEQ/L
TOTAL BILIRUBIN [2]: 0.18 mg/dL
TOTAL PROTEIN [2]: 6.1 G/DL
URIC ACID [2]: 1.67 mg/dL
ABSOLUTE BASOPHIL [3]: 0 CELLS/uL
ABSOLUTE EOSINOPHIL [3]: 43.67 CELLS/uL
ABSOLUTE LYMPHOCYTE [3]: 14019 CELLS/uL
ABSOLUTE MONOCYTE [3]: 367 CELLS/uL
ABSOLUTE SEGMENTED NEUTROPHIL [3]: 1137 CELLS/uL
BASOPHIL [3]: 0%
EOSINOPHIL [3]: 0.33%
ERYTHROCYTE COUNT [3]: 5.52 x10E6/uL
HEMATOCRIT [3]: 36.5%
HEMOGLOBIN [3]: 14.27 G/DL
LEUKOCYTE COUNT [3]: 15.57 x10E3/uL
LYMPHOCYTE [3]: 89.67%
MEAN CORPUSCULAR HEMOGLOBIN [3]: 25.87 pg
MEAN CORPUSCULAR HEMOGLOBIN CONCENTRATION [3]: 39.17 G/DL
MEAN CORPUSCULAR VOLUME [3]: 66.13 fL
MONOCYTE [3]: 2.33%
NEUTROPHIL [3]: 7.67%
NUCLEATED RED BLOOD CELLS [3]: 0.67 /100WBC
PLATELET COUNT [3]: 1268.67 x10E3/uL
ALANINE AMINOTRANSFERASE [3]: 66 u/L
ALBUMIN [3]: 4.57 G/DL
ALKALINE PHOSPHATASE [3]: 374.67 u/L
ASPARTATE AMINOTRANSFERASE [3]: 95 u/L
BLOOD UREA NITROGEN [3]: 16.67 mg/dL
CARBON DIOXIDE [3]: 29.67 mmol/L
CHLORIDE [3]: 99.67 MEQ/L
CHOLESTEROL [3]: 67 mg/dL
CREATINE PHOSPHOKINASE [3]: 308 u/L
CREATININE [3]: 0.25 mg/dL
GLUCOSE [3]: 141.33 mg/dL
LACTATE DEHYDROGENASE [3]: 432 u/L
LIPASE [3]: 8.67 u/L
PHOSPHORUS [3]: 11.9 mg/dL
POTASSIUM [3]: 6.67 MEQ/L
SODIUM [3]: 145.33 MEQ/L
TOTAL BILIRUBIN [3]: 0.33 mg/dL
TOTAL PROTEIN [3]: 6.13 G/DL
URIC ACID [3]: 2.03 mg/dL
